Source: patent publication EP0560267B1, “Isosteric antiherpes peptide derivatives” (BOEHRINGER INGELHEIM (CANADA) LTD., priority 1992, dated 1993)
Where two headings read alike, the source gives them in different places.

Legend:
[1] = target: T1, HSV-1 ribonucleotide reductase (Human herpesvirus 1, UniProt P08543); experiment: Inhibition of Herpes Simplex Virus (HSV-1) ribonucleotide reductase; format: biochemical
T1 construct: HSV-1 ribonucleotide reductase (partially purified) was obtained from quiescent BHK-21/C13 cells infected with strain F HSV-1 virus; made in house; host or cells: quiescent BHK-21/C13 cells infected with HSV-1 strain F (virus-encoded enzyme, partially purified)
T1 sequence (P08543 whole entry): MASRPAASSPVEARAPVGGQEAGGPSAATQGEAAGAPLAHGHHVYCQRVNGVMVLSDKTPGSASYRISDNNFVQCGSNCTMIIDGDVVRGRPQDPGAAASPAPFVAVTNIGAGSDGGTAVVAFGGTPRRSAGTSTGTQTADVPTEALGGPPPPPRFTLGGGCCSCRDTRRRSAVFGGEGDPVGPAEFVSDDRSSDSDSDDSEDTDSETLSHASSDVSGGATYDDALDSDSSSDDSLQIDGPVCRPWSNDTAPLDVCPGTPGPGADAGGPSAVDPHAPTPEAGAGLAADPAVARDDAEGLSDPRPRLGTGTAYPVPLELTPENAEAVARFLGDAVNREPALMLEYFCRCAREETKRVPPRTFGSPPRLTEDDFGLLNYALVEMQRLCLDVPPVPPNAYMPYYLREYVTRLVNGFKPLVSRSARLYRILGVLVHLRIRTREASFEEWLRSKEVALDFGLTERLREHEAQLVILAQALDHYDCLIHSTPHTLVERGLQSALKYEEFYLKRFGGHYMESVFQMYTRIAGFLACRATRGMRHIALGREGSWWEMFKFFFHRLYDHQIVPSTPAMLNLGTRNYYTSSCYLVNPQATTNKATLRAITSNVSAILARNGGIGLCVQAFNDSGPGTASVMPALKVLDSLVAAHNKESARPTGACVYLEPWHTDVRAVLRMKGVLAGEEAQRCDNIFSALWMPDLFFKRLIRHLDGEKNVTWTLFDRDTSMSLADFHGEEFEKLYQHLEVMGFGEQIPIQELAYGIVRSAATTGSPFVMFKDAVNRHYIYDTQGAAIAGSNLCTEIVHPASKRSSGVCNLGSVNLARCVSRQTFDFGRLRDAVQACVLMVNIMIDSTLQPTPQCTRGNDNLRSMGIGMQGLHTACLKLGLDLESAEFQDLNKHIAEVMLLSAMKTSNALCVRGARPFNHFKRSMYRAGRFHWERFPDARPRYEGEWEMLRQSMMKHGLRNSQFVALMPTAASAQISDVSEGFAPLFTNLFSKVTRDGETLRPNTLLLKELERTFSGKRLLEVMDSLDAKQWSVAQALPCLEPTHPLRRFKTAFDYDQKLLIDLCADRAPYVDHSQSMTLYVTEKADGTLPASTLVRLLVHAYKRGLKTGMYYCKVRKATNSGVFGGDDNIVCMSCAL
Text: Inhibition of Herpes Simplex Virus (HSV-1) Ribonucleotide Reductase
• a) Preparation of Enzyme HSV-1 ribonucleotide reductase (partially purified) was obtained from quiescent BHK-21/C13 cells infected with strain F HSV-1 virus at 10 plaque forming units/cell as described by E.A. Cohen et al., J. Gen. Virol., 66, 733 (1985). • b) Assay and Results for Exemplified Peptides By following the procedure described by P. Gaudreau et al., J. Biol, Chem., 262, 12413 (1987), the assay results listed in the following Table I were obtained. The assay result for each exemplified compound of formula 1 is expressed as the concentration of the compound producing 50% of the maximal inhibition (IC50) of enzyme activity. The number of units of the enzyme preparation used in each assay was constant, based on the specific activity of the enzyme preparation. The results are relative to the activity obtained in control experiments without the test compound and represent the mean of four assays that varied less than 10% with each other.

HSV-2 = experiment: Inhibition of Herpes Simplex Virus (HSV-2) replication in cell culture; format: cell-based
Procedure: Inhibition of Herpes Simplex Virus (HSV-2) Replication in Cell Culture
BHK-21/C13 cells (ATCC CCL 10) are incubated for two days in 150 cm^2 T-flasks (1.5 x 10^6 cells/flask) with alpha-MEM medium (Gibco Canada Inc., Burlington, Ontario, Canada) supplemented with 8% (v/v) fetal bovine serum (FBS, Gibco Canada Inc.). The cells are trypsinized and then transferred to fresh media in a 24 well plate to give 2.5 x 10^5 cells in 750 µL of media per well. The cells are incubated at 37° for a period of 6 h to allow them to adhere to the plate. Thereafter, the cells are washed once with 500 µL of alpha-MEM supplemented with 0.5% (v/v) FBS and then incubated with 750 µL of the same media (low serum) for 3 days. After this period of serum starvation, the low serum medium is removed and the cells are incubated in 500 µL of BBMT for 2 to 3 hours. {BBMT medium is described by P. Brazeau et al., Proc. Natl. Acad. Sci. USA, 79, 7909 (1982).} Thereafter, the cells are infected with HSV-2 (multiplicity of infection = 0.02 PFU/cell) in 100 µL of BBMT medium. (Note: The HSV-2 used was strain HG-52, see Y. Langelier and G. Buttin, J. Gen. Virol., 57, 21 (1981); the virus was stored at -80°.) Following 1 h of virus adsorption at 37°, the media is removed and the cells are washed with BBMT (3 X 250 µL). The cells in each well are incubated with or without (control) appropriate concentrations of the test agent dissolved in 200 µL of BBMT medium. After 29 h of incubation at 37°, the infected cells are harvested by first freezing the plate at -80°, followed by thawing. The cells in each well are scraped off the surface of the well with the help of the melting ice fragments. After complete thawing, the cell suspensions are collected and each well is rinsed with 150 µL of BBMT medium. The viral sample (suspension plus washing) is sonicated gently for 4 min at 4°. Cell debris are removed by centrifugation (1000 times gravity for 10 minutes at 4°). The supernatant is collected and stored at -80° until determination of viral titer.
Viral titration was performed by a modification of the colorimetric assay method of M. Langlois et al., Journal of Biological Standardization, 14, 201 (1986).
More specifically, in a similar manner as described above, BHK-21/C13 cells are trypsinized and transferred to fresh media in a 96 well microtiter plate to give 20,000 cells in 100 µL of media per well. The cells in the prepared plate are incubated at 37° for 2 h. During that time, the viral sample is thawed and sonicated gently for 15 seconds, and log dilutions of the sample are prepared (1/5 sequential: 50 µL of the sample plus 200 µL of BBMT medium, sequential dilutions being done with a multichannel pipette.
On completion of the above 2 hour incubation of the BHK-21/C13 cells, the media is replaced with alpha-MEM medium supplemented with 3% (v/v) FBS. The cells are now ready to be infected with the various sample dilutions of virus. Aliquots (50 µL) of the various dilutions are transferred into the appropriate wells of the plate. The resulting infected cells are incubated for 2 days at 37°. Then 50 µL of a 0.15% (v/v) solution of neutral red dye in Hank's Balanced Salt Solution (pH 7.3, Gibco Canada Inc.) is added to each well. The prepared plate is incubated for 45 min at 37°. Medium from each well is then aspirated and the cells are washed once with 200 µL of Hank's Balanced Salt Solution. […]

[2] = Human alphaherpesvirus 2, Table IV, cell culture assay of example 11, read-out: EC50
[3] = Human alphaherpesvirus 2, Table V, cell culture assay of example 11
[4] = Table I, partially purified enzyme from BHK-21/C13 cells infected with strain F HSV-1, mean of four assays
[5] = Human alphaherpesvirus 2, BHK21 (C13), 29 h, Table II, BHK-21/C13 cells, HSV-2 strain HG-52, 0.02 PFU/cell, 29 h incubation, read-out: EC50

| IC50 ([1]; Table IV, assay of example 10) [µM] | EC50 (HSV-2; [2]) [µM] | IC50 ([1]; Table V, assay of example 10) [µM] | Structure (SMILES) | further results |
| --- | --- | --- | --- | --- |
| 0.34 | 18 | – | CCCC(CCC)NC(=O)NC(C(=O)CC(CC(=O)C(C)(C)C)C(=O)NC(C(=O)NCC(C)(CC)CC)C1(C(=O)O)CCCC1)C(C)(C)C [Pr2CHNHC(O) / NHCH2CEt2Me, Pr2CHNHC(O)-Tbg-CH2-(R)-CH(CH2C(O)CMe3)C(O)-Asp(cyPn)-NHCH2CEt2Me] | – |
| 0.52 | 19 | – | CCCC(CCC)NC(=O)NC(C(=O)CC(CC(=O)C(C)(C)C)C(=O)NC(C(=O)NCC(CC)(CC)CC)C1(C(=O)O)CCCC1)C(C)(C)C [Pr2CHNHC(O) / NHCH2CEt3, Pr2CHNHC(O)-Tbg-CH2-(R)-CH(CH2C(O)CMe3)C(O)-Asp(cyPn)-NHCH2CEt3] | – |
| 0.58 | 72 | – | CCCC(CCC)NC(=O)NC(C(=O)CC(CC(=O)C(C)(C)C)C(=O)NC(C(=O)NCCC(C)(C)C)C1(C(=O)O)CCCC1)C(C)(C)C [Pr2CHNHC(O) / NHCH2CH2CMe3, Pr2CHNHC(O)-Tbg-CH2-(R)-CH(CH2C(O)CMe3)C(O)-Asp(cyPn)-NHCH2CH2CMe3] | – |
| 0.24 | 16 | – | CCCC(CCC)NC(=O)NC(C(=O)CC(CC(=O)C(C)(C)C)C(=O)NC(C(=O)NCC(C)(C)CC)C1(C(=O)O)CCCC1)C(C)(C)C [Pr2CHNHC(O) / NHCH2CMe2Et, Pr2CHNHC(O)-Tbg-CH2-(R)-CH(CH2C(O)CMe3)C(O)-Asp(cyPn)-NHCH2CMe2Et] | – |
| 0.42 | 35 | – | CCCC(CCC)NC(=O)NC(C(=O)CC(CC(=O)C(C)(C)C)C(=O)NC(C(=O)NCC(C)(C)CCC)C1(C(=O)O)CCCC1)C(C)(C)C [Pr2CHNHC(O) / NHCH2CMe2Pr, Pr2CHNHC(O)-Tbg-CH2-(R)-CH(CH2C(O)CMe3)C(O)-Asp(cyPn)-NHCH2CMe2Pr] | – |
| 0.51 | 38 | – | CCCC(CCC)NC(=O)NC(C(=O)CC(CC(=O)C(C)(C)C)C(=O)NC(C(=O)NC(C)(C)C(C)(C)C)C1(C(=O)O)CCCC1)C(C)(C)C [Pr2CHNHC(O) / NHCMe2CMe3, Pr2CHNHC(O)-Tbg-CH2-(R)-CH(CH2C(O)CMe3)C(O)-Asp(cyPn)-NHCMe2CMe3] | – |
| 0.22 | 80 | – | CCCC(CCC)NC(=O)NC(C(=O)CC(CC(=O)C(C)(C)C)C(=O)NC(C(=O)NN(CC)C(C)(C)C)C1(C(=O)O)CCCC1)C(C)(C)C [Pr2CHNHC(O) / NHN(Et)CMe3, Pr2CHNHC(O)-Tbg-CH2-(R)-CH(CH2C(O)CMe3)C(O)-Asp(cyPn)-NHN(Et)CMe3] | – |
| 0.22 | 84 | – | CCCC(CCC)NC(=O)NC(C(=O)CC(CC(=O)C(C)(C)C)C(=O)NC(C(=O)NNC(C)(C)C)C1(C(=O)O)CCCC1)C(C)(C)C [Pr2CHNHC(O) / NHNHCMe3, Pr2CHNHC(O)-Tbg-CH2-(R)-CH(CH2C(O)CMe3)C(O)-Asp(cyPn)-NHNHCMe3] | – |
| – | – | 0.25 | CCCC(CCC)NC(=O)NC(C(=O)CC(CC(=O)C(C)(C)C)C(=O)NC(C(=O)NC(C)C(C)(C)C)C1(C(=O)O)CCCC1)C(C)(C)CC [Pr2CHNHC(O)-NH-(S)-CH(CMe2Et)-C(O)-CH2-(R)-CH(CH2C(O)CMe3)C(O)-Asp-(cyPn)-NH-(R)-CH(Me)CMe3] | EC50 (HSV-2; [3]): 13 µM |
| – | – | 0.36 | CCCC(CCC)NC(=O)NC(C(=O)CC(CC(=O)C(C)C)C(=O)NC(C(=O)NCC(C)(C)C)C1(C(=O)O)CCCC1)C(C)(C)C [Pr2CHNHC(O)-Tbg-CH2-(R)-CH(CH2-C(O)CHMe2)C(O)-Asp(cyPn)-NHCH2-CMe3] | EC50 (HSV-2; [3]): 39 µM |
| – | – | 0.21 | CCCC(CCC)NC(=O)NC(C(=O)CC(CC(=O)C(C)(C)CC)C(=O)NC(C(=O)NCC(C)(C)C)C1(C(=O)O)CCCC1)C(C)(C)C [Pr2CHNHC(O)-Tbg-CH2-(R)-CH(CH2-C(O)CMe2Et)C(O)-Asp(cyPn)-NHCH2-CMe3] | EC50 (HSV-2; [3]): 33 µM |
| – | – | 0.25 | CCCC(CCC)NC(=O)NC(C(=O)CC(CC(=O)C(C)(C)C)C(=O)NC(C(=O)NCC(C)(C)C)C(CCC)C(=O)O)C(C)(C)C [Pr2CHNHC(O)-Tbg-CH2-(R)-CH(CH2-C(O)CMe3)C(O)-Asp{(R)-Pr}-NHCH2CMe3] | EC50 (HSV-2; [3]): 46 µM |
| – | – | 0.3 | C=CCC(C(=O)O)C(NC(=O)C(CC(=O)C(NC(=O)NC(CCC)CCC)C(C)(C)C)CC(=O)C(C)(C)C)C(=O)NCC(C)(C)C [Pr2CHNHC(O)-Tbg-CH2-(R)-CH(CH2-C(O)CMe3)C(O)-Asp{(R)-allyl}-NHCH2CMe3] | EC50 (HSV-2; [3]): 62 µM |
| – | – | – | CCCC(CCC)NC(=O)NC(C(=O)CC(CC(=O)C(C)(C)C)C(=O)NC(C(=O)NCC(C)(C)C)C1(C(=O)O)CCCC1)C(C)(C)C [Pr2CHNHC(O)-Tbg-CH2-(R)-CH(CH2C(O)-CMe3)C(O)-Asp(cyPn)-NHCH2CMe3] | IC50 [1, 4]: 0.08 µM; EC50 (HSV-2; [5]): 24 µM |
| – | – | – | CCCC(CCC)NC(=O)NC(C(=O)CC(CC(=O)C(C)(C)C)C(=O)NC(C(=O)NC(CO)CC(C)(C)C)C1(C(=O)O)CCCC1)C(C)(C)C [Pr2CHNHC(O)-Tbg-CH2-(R)-CH(CH2C(O)-CMe3)C(O)-Asp(cyPn)-γMeLeucinol] | IC50 [1, 4]: 0.2 µM; EC50 (HSV-2; [5]): 30 µM |
| 0.4 | 24 | – | CCCC(CCC)NC(=O)NC(C(=O)CC(CC(=O)C(C)(C)C)C(=O)NC(C(=O)NC1CCCCC1(C)C)C1(C(=O)O)CCCC1)C(C)(C)C [Pr2CHNHC(O)-Tbg-CH2-(R)-CH(CH2C(O)CMe3)C(O)-Asp(cyPn)-NH-(2,2-dimethyl-cyclohexyl)] | – |
| 0.38 | 31 | – | CCCC(CCC)NC(=O)NC(C(=O)CC(CC(=O)C(C)(C)C)C(=O)NC(C(=O)NC1CCCC1(C)C)C1(C(=O)O)CCCC1)C(C)(C)C [Pr2CHNHC(O)-Tbg-CH2-(R)-CH(CH2C(O)CMe3)C(O)-Asp(cyPn)-NH-(2,2-dimethyl-cyclopentyl)] | – |
| 0.5 | – | – | CCCC(CCC)NC(=O)NC(C(=O)CC(CC(=O)C(C)(C)C)C(=O)NC(C(=O)NC(C)C(C)(C)CC)C1(C(=O)O)CCCC1)C(C)(C)C [Pr2CHNHC(O)-Tbg-CH2-(R)-CH(CH2C(O)CMe3)C(O)-Asp(cyPn)-NH-(R)-CH(Me)C(Me)2Et] | EC50 (HSV-2; Human alphaherpesvirus 2, Table IV, cell culture assay of example 11): 21 µM |
| 0.67 | 75 | – | CCCC(CCC)NC(=O)NC(C(=O)CC(CC(=O)C(C)(C)C)C(=O)NC(C(=O)NC1CCCCC1C)C1(C(=O)O)CCCC1)C(C)(C)C [Pr2CHNHC(O)-Tbg-CH2-(R)-CH(CH2C(O)CMe3)C(O)-Asp(cyPn)-cis-NH-(2-methyl-cyclohexyl)] | – |

| Structure (SMILES) | IC50 ([1]; Table IV, assay of example 10) [µM] | EC50 (HSV-2; [2]) [µM] | IC50 ([1]; Table V, assay of example 10) [µM] | further results |
| --- | --- | --- | --- | --- |
| CCCC(CCC)NC(=O)NC(C(=O)CC(CC(=O)C1(C)CCCC1)C(=O)NC(C(=O)NCC(C)(C)C)C1(C(=O)O)CCCC1)C(C)(C)C [Pr2CHNHC(O)-Tbg-CH2-(R)-CH{CH2-C(O)-(1-methylcyclopentyL)}C(O)-Asp(cyPn)-NHCH2CMe3] | – | – | 0.24 | EC50 (HSV-2; Human alphaherpesvirus 2): 35 µM |
| CCCC(CCC)NC(=O)NC(C(=O)CC(CC(=O)C1CCC1)C(=O)NC(C(=O)NCC(C)(C)C)C1(C(=O)O)CCCC1)C(C)(C)C [Pr2CHNHC(O)-Tbg-CH2-(R)-CH{CH2-C(O)-(cyclobutyl)}C(O)-Asp(cyPn)-NHCH2CMe3] | – | – | 0.31 | EC50 (HSV-2; Human alphaherpesvirus 2): 46 µM |
